Source: ChEMBL document CHEMBL4765277, “Design, synthesis and biological evaluation of novel indazole-based derivatives as potent HDAC inhibitors via fragment-based virtual screening” (Eur J Med Chem, 2020)
Calls of active or inactive are those of the source. The calls are words filed in the database; no cut-off is given here.

What was measured:
HCT-116 [1] = assay: Induction of apoptosis in human HCT-116 cells assessed as viable cells at 3 uM after 24 hrs by Annexin V-FITC/PI staining based flow cytometric analysis (reference value: 90.34%); assay type: functional; conditions: Homo sapiens, HCT-116, read-out: Activity
HCT-116 [2] = assay: Induction of apoptosis in human HCT-116 cells assessed as viable cells at 10 uM after 24 hrs by Annexin V-FITC/PI staining based flow cytometric analysis (reference value: 90.34%); assay type: functional; conditions: read-out: Activity
Histone deacetylase 8 = molecular target: T1, Histone deacetylase 8 (Homo sapiens, UniProt Q9BY41); assay: Inhibition of recombinant human full length C-terminal His-tagged HDAC8 expressed in sf9 insect cells using Boc-Lys(TFA)-AM as substrate incubated for 60 mins by fluorescence assay
T1 sequence (Q9BY41 whole entry): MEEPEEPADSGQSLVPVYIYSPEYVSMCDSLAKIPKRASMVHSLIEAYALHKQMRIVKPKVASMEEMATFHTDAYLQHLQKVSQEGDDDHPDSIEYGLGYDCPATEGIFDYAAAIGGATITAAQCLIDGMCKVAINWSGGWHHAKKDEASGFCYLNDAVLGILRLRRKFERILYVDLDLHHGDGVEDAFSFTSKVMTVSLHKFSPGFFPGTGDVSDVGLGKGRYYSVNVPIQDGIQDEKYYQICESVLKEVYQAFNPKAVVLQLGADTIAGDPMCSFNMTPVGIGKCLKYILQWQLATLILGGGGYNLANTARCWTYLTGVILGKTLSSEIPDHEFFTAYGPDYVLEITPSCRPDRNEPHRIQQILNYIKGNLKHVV

HCT-116 [3] = assay: Induction of apoptosis in human HCT-116 cells assessed as late apoptotic cells at 10 uM after 24 hrs by Annexin V-FITC/PI staining based flow cytometric analysis (reference value: 5.14%); assay type: functional
HCT-116 [4] = assay: Inhibition of HDAC in human HCT-116 cells assessed as up regulation of acetylated tubulin protein expression at 1.25 to 10 uM after 8 hrs by Western blot analysis; assay type: cell-based; conditions: dose 1.25-10 µM
HCT-116 [5] = assay: Induction of apoptosis in human HCT-116 cells assessed as necrotic cells at 10 uM after 24 hrs by Annexin V-FITC/PI staining based flow cytometric analysis (reference value: 0.51%); assay type: functional
MCF7 = assay: cells; conditions: Homo sapiens, MCF7, 72 h
Description: Antiproliferative activity against human MCF7 cells assessed as reduction in cell viability after 72 hrs by MTT assay

HCT-116 [6] = assay: Induction of apoptosis in human HCT-116 cells assessed as late apoptotic cells at 1 uM after 24 hrs by Annexin V-FITC/PI staining based flow cytometric analysis (reference value: 5.14%); assay type: functional
HCT-116 [7] = assay: Induction of apoptosis in human HCT-116 cells assessed as early apoptotic cells at 1 uM after 24 hrs by Annexin V-FITC/PI staining based flow cytometric analysis (reference value: 4.01%); assay type: functional
HCT-116 [8] = assay: Induction of apoptosis in human HCT-116 cells after 24 hrs by Annexin V-FITC/PI staining based flow cytometric analysis; assay type: functional, cell-based
HCT-116 [9] = assay: Induction of apoptosis in human HCT-116 cells assessed as necrotic cells at 3 uM after 24 hrs by Annexin V-FITC/PI staining based flow cytometric analysis (reference value: 0.51%); assay type: functional
HCT-116 [10] = assay: Induction of apoptosis in human HCT-116 cells assessed as early apoptotic cells at 10 uM after 24 hrs by Annexin V-FITC/PI staining based flow cytometric analysis (reference value: 4.01%); assay type: functional
HCT-116 [11] = assay: Antiproliferative activity against human HCT-116 cells assessed as reduction in cell viability after 72 hrs by MTT assay; assay type: functional, cell-based; conditions: HCT-116, 72 h
HCT-116 [12] = assay: Induction of apoptosis in human HCT-116 cells assessed as viable cells at 1 uM after 24 hrs by Annexin V-FITC/PI staining based flow cytometric analysis (reference value: 90.34%); assay type: functional; conditions: Homo sapiens, HCT-116, read-out: Activity
HCT-116 [13] = assay: Induction of cell cycle arrest in human HCT116 cells assessed as cell accumulation at G0/G1 phase at 3 uM after 24 hrs by Rnase/PI staining based flow cytometric analysis (reference value: 48.4%); assay type: functional
HeLa = assay: cells; assay type: functional, cell-based; conditions: Homo sapiens, 72 h
Description: Antiproliferative activity against human HeLa cells assessed as reduction in cell viability after 72 hrs by MTT assay

Histone deacetylase 1 = Histone deacetylase 1 (Homo sapiens, UniProt Q13547); assay: Inhibition of recombinant human C-terminal His/FLAG-tagged HDAC1 (1 to end residues) expressed in sf9 insect cells using Boc-Lys(Ac)-AMC as substrate incubated for 60 mins by fluorescence assay
Chain of Histone deacetylase 1 (Q13547 whole entry): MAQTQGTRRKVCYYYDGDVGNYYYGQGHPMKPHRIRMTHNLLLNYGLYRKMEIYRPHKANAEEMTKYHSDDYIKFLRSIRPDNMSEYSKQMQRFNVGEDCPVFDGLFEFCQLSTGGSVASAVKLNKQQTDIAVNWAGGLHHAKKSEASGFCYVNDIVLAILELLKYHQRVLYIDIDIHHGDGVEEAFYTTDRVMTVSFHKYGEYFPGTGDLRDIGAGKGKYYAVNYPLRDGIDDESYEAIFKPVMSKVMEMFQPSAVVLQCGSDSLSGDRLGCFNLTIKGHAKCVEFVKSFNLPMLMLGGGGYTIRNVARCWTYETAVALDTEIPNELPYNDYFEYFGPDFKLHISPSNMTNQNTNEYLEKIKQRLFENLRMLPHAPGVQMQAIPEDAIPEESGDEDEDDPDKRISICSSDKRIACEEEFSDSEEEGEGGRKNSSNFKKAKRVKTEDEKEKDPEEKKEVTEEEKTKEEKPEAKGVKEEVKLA

HCT-116 [14] = assay: Induction of apoptosis in human HCT-116 cells assessed as early apoptotic cells at 3 uM after 24 hrs by Annexin V-FITC/PI staining based flow cytometric analysis (reference value: 4.01%); assay type: functional
HCT-116 [15] = assay: Induction of apoptosis in human HCT-116 cells assessed as late apoptotic cells at 3 uM after 24 hrs by Annexin V-FITC/PI staining based flow cytometric analysis (reference value: 5.14%); assay type: functional
HCT-116 [16] = assay: Induction of cell cycle arrest in human HCT116 cells assessed as cell accumulation at S phase at 3 uM after 24 hrs by Rnase/PI staining based flow cytometric analysis (reference value: 25.2%); assay type: functional
Histone deacetylase 2 = Histone deacetylase 2 (Homo sapiens, UniProt Q92769); assay: Inhibition of recombinant human C-terminal His-tagged HDAC2 (1 to end residues) expressed in sf9 insect cells using Boc-Lys(Ac)-AMC as substrate incubated for 60 mins by fluorescence assay
Chain of Histone deacetylase 2 (Q92769 whole entry): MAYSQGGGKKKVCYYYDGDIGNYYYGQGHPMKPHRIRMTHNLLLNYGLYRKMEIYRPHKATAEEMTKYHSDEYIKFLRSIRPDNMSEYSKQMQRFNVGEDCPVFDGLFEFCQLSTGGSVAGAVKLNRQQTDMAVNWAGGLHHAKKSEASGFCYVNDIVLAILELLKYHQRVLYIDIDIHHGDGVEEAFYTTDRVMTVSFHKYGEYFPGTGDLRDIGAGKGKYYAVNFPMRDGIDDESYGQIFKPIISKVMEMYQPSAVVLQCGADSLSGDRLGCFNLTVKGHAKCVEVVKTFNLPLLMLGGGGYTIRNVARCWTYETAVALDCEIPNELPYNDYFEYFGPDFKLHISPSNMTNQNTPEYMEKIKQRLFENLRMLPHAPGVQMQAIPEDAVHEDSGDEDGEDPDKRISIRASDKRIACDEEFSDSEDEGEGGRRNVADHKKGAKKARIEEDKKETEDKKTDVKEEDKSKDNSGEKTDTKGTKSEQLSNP

HCT-116 [17] = assay: Induction of cell cycle arrest in human HCT116 cells assessed as cell accumulation at G2/M phase at 3 uM after 24 hrs by Rnase/PI staining based flow cytometric analysis (reference value: 26.4%); assay type: functional
HCT-116 [18] = assay: Induction of apoptosis in human HCT-116 cells assessed as necrotic cells at 1 uM after 24 hrs by Annexin V-FITC/PI staining based flow cytometric analysis (reference value: 0.51%); assay type: functional
HCT-116 [19] = assay: Inhibition of HDAC in human HCT-116 cells assessed as up regulation of acetylated histone H3 protein expression at 1.25 to 10 uM after 8 hrs by Western blot analysis; assay type: cell-based; conditions: dose 1.25-10 µM

IC50 (Histone deacetylase 8): 3.3 nM
IC50 (MCF7): 1000 nM
IC50 (HCT-116 [11]): 3900 nM
IC50 (HeLa): 4800 nM
IC50 (Histone deacetylase 1): 3.1 nM
IC50 (Histone deacetylase 2): 3.6 nM
Structure (SMILES): O=C(CCCCCCC(=O)Nc1n[nH]c2cc(-c3ccc(Cl)cc3)ccc12)NO
viability at 3 µM (HCT-116 [1]): 24%
viability at 10 µM (HCT-116 [2]): 23.2%
Activity (HCT-116 [3]): 61.98%
inhibition (HCT-116 [4]): Active
Activity (HCT-116 [5]): 2.47%
Activity (HCT-116 [6]): 46.29%
Activity (HCT-116 [7]): 8.73%
Activity (HCT-116 [8]): Dose-dependent effect
Activity (HCT-116 [9]): 0.86%
Activity (HCT-116 [10]): 12.32%
viability at 1 µM (HCT-116 [12]): 40.6%
Activity (HCT-116 [13]): 26.2%
Activity (HCT-116 [14]): 10.36%
Activity (HCT-116 [15]): 64.75%
Activity (HCT-116 [16]): 29.7%
Activity (HCT-116 [17]): 44.1%
Activity (HCT-116 [18]): 2.41%
inhibition (HCT-116 [19]): Active
